Several values for one entry are separate records, joined by “and”; a condition that tells them apart may be missing. Equal entries are not always repeated. Where two headings read alike, the source gives them in different places. Values belong to the molecule of their own block, whether it stands above or below them.
Assays:
trachealis muscle = experiment: Inhibition of calcium dependent smooth muscle contraction (KCl-challenged trachea); format: cell-based, dog; details: Canis lupus familiaris; for inhibition at 2 µM: concentration 2.0 μM; for inhibition at 0.1 µM: concentration 0.1 μM; for inhibition at 0.5 µM: concentration 0.5 μM; for inhibition at 10 µM: concentration 10.0 μM; for inhibition at 0.2 µM: concentration 0.2 μM
Protocol: The test for inhibition of calcium dependent smooth muscle contraction is determined according to the following procedure:
Trachea from dogs sacrificed by excess KCl injection are stored overnight at 4° C. in oxygenated Krebs-Henseleit buffer. Tracheal rings, one cartilage segment wide (5-10 mm), are cut starting from the bronchial end. After cutting the cartilage, the trachealis muscle tissue is suspended in oxygenated Krebs-Henseleit buffer at 37° C. in a 25 ml tissue bath. After a 60 minutes equilibration period, the tissues are challenged with 10 μM carbachol. After 5 minutes the tissues are rinsed and allowed to rest 50 minutes. The tissues are then challenged with 50 mM KCl and, after 30 minutes, the contractions are quantitated. The tissues are then rinsed and reequilibrated for 50 minutes. Test compounds are then added for 10 minutes, and the tissue is rechallenged with 50 mMKcl. After 30 minutes, the contraction is recorded and used to determine the % inhibition of control.
The percent inhibition of smooth muscle contraction is calculated from response data before and after drug treatment. [formula] A rating is assigned to the compound depending upon the percent inhibition obtained.

calcium channels = target: T1, calcium channels (Oryctolagus cuniculus, UniProt P15381); experiment: Inhibition of nitrendipine binding (3H-nitrendipine displacement, rabbit heart membranes); design: species or system rabbit (New Zealand white); details: 90 min, 4° C.
T1 construct: from tissue; host or cells: heart of female New Zealand white rabbits, membrane fraction (42,000×g pellet)
Protocol: (1) Inhibition of nitrendipine binding to calcium channels.
The assay for inhibition of nitrendipine binding follows the following procedure:
Female, New Zealand white rabbits (1-2 kg) are sacrificed by cervical dislocation, and the heart is immediately removed, cleaned, and chopped into small pieces. The tissue is homogenized in 5× volume of 0.05M Hepes buffer, pH 7.4. The homogenate is centrifuged at 4000×g for 10 minutes; the supernatant is recentrifuged at 42,000×g for 90 minutes. The resulting membrane pellet is resuspended (0.7 ml/g weight) in 0.05M Hepes, pH 7.4 and stored at -70° C. until used. Each tube of the binding assay contains ^3 H- nitrendipine (0.05-0.50 nM), buffer, membranes (0.10 ml), and test compound in a total volume of 1.0 ml. After 90 minutes at 4° C., the bound nitrendipine is separated from the unbound by filtration on Whatman GF/C fibers. After rinsing, the filters are dried and counted in a liquid scintillation counter.
Non-specific binding of ^3 H-nitrendipine (that amount bound in the presence of excess unlabelled nitrendipine) is subtracted from the total bound to obtain specifically bound radiolabeled nitrendipine. The amount of specifically bound nitrendipine in the presence of a test compound is compared to that amount bound in the absence of a compound. A percent displacement (or inhibition) can then be obtained.

Aorta Muscle = experiment: Inhibition of aorta muscle contraction; format: cell-based; details: Table II; concentration 0.1 μM
[1] = Table II, read-out: Inhibition Trachea Muscle Contraction % Inhibition
[2] = Table I, read-out: Inhibition of Ca2+ dependent smooth muscle contraction % Inhibition

T1 sequence (P15381 whole entry, other chains not shown): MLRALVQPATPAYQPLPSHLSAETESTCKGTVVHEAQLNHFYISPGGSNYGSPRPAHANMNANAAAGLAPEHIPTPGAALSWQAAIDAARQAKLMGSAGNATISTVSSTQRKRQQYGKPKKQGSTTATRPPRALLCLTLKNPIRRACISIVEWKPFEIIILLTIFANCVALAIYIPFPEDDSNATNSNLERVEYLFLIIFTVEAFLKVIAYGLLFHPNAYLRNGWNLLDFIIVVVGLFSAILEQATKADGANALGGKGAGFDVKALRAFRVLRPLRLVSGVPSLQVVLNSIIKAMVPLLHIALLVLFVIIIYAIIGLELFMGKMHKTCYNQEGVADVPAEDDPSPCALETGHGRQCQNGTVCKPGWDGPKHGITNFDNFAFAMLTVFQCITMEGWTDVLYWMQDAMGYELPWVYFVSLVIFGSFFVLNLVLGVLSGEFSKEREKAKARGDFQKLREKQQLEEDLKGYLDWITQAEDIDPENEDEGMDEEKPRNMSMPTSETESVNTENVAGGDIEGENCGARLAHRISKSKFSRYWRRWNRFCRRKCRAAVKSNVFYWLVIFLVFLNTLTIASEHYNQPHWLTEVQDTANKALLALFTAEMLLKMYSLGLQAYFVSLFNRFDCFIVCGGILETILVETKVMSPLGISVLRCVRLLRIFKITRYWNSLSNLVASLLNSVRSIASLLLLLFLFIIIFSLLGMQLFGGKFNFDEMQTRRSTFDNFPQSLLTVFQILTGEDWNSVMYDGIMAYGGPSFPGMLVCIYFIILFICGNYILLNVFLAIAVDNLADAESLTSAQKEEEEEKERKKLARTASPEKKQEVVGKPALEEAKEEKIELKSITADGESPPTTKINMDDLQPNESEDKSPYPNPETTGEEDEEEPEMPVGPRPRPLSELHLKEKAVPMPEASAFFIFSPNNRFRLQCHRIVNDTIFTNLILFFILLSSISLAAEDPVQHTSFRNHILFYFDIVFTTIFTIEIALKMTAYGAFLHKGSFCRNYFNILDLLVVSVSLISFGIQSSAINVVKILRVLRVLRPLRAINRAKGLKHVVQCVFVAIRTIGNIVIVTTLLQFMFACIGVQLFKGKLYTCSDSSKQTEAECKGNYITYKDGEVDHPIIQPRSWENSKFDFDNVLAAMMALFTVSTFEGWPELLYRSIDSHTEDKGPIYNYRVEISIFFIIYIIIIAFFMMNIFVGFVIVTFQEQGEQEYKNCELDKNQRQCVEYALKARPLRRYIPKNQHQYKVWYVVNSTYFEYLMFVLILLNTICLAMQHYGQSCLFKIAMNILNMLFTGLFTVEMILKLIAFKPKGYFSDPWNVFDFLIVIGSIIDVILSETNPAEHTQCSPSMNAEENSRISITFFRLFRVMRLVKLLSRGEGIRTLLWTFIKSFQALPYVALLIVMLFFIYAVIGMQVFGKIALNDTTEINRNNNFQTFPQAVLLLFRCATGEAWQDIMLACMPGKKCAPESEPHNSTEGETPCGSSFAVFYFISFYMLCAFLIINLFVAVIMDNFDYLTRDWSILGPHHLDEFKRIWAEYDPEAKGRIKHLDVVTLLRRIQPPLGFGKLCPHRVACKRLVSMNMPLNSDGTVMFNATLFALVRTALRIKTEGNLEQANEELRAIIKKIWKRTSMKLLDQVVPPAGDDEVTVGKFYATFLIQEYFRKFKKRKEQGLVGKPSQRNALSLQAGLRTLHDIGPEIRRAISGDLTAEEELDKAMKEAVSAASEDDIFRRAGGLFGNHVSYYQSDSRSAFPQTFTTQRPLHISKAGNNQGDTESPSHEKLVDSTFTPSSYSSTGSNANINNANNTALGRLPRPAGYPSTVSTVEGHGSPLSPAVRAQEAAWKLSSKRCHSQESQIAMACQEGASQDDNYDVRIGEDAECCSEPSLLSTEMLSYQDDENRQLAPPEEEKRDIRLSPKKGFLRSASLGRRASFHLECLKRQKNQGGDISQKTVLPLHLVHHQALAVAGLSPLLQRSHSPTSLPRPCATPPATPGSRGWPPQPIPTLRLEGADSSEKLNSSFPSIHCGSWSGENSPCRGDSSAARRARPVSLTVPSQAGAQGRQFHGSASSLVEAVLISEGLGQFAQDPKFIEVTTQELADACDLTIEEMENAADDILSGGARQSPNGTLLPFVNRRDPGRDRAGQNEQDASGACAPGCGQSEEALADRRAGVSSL
T1 sequence (P13806 27-960 partner limits assumed, other chains not shown): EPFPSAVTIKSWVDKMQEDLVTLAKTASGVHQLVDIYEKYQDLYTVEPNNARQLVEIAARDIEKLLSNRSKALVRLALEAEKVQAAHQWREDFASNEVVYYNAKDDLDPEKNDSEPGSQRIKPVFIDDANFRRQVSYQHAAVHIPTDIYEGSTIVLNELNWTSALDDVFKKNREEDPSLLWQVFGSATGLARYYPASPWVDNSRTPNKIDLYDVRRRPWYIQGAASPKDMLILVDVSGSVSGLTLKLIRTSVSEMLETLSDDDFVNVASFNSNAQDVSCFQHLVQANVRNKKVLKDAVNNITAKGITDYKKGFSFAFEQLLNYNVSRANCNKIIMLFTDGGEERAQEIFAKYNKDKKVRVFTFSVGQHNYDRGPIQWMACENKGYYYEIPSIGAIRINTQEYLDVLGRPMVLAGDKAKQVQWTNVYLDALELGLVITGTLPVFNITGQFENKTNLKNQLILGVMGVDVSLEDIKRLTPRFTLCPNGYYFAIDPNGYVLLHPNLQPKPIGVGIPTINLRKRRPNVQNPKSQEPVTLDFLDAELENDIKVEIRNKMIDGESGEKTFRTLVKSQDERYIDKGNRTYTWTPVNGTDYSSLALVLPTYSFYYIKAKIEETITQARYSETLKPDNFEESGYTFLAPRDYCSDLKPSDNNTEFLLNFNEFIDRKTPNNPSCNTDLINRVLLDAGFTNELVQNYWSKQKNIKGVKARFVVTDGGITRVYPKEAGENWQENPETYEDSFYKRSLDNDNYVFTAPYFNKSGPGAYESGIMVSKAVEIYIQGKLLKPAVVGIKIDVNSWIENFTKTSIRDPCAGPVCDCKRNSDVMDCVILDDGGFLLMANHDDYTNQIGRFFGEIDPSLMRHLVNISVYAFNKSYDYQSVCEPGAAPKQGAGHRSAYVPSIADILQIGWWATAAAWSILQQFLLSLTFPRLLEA
T1 sequence (P13806 961-1106 partner limits assumed, other chains not shown): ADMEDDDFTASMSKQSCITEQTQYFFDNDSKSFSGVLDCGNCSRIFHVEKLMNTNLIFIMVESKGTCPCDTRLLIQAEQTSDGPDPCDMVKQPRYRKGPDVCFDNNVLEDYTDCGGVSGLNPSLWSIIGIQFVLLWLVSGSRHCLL

Structure (SMILES): CC1=C(C(=O)OC2CCCSC2)C(c2c(F)c(F)c(F)c(F)c2F)C2=C(CCCCS2(=O)=O)N1 (stereo not shown) [4 C6 F5 drawing 13]
- inhibition at 2 µM (trachealis muscle; [1]): 53%

Structure (SMILES): COC(=O)C1=C(C)NC2=C(C1c1c(F)c(F)c(F)c(F)c1F)S(=O)(=O)CC2 (stereo not shown) [2 CH3 C6 F5]
- IC50 (calcium channels; Table I): 150 nM
- inhibition at 2 µM (trachealis muscle; [2]): 47%

Structure (SMILES): CC1=C(C(=O)OCCN(C)Cc2ccccc2)C(c2ccccc2[N+](=O)[O-])C2=C(CCCCCS2(=O)=O)N1 (stereo not shown) [5 2-NO2C 6 H4 CH2 CH2 NCH3 CH2 C6 H5]
- inhibition at 0.1 µM (trachealis muscle; [1]): 69%
- inhibition at 0.1 µM (Aorta Muscle): 73%

Structure (SMILES): COC(=O)C1=C(C)NC2=C(C1c1cccc(C#N)c1)S(=O)(=O)CC2 (stereo not shown) [2 CH3 3-CNC6 H4]
- IC50 (calcium channels; Table I): 2000 nM

Structure (SMILES): CCOC(=O)C1=C(C)NC2=C(C1c1cccnc1SC)S(=O)(=O)CCCCC2 (stereo not shown) [drawing 8 CH2 CH3]
- inhibition at 0.3 µM (trachealis muscle; Table II, concentration 0.3 μM): 79%
- inhibition at 0.1 µM (Aorta Muscle): 42%

Structure (SMILES): CC1=C(C(=O)OC2CCCSC2)C(c2cccc(Cl)c2Cl)C2=C(CCCCS2(=O)=O)N1 (stereo not shown) [4 2,3-Cl2C6 H3 drawing 14]
- inhibition at 2 µM (trachealis muscle; [1]): 54%

Structure (SMILES): CCOC(=O)C1=C(C)NC2=C(C1c1cccc([N+](=O)[O-])c1)S(=O)(=O)CCC2 (stereo not shown) [3 CH2 CH3 3-NO2C6 H4, Ethyl 3,4,5,8-tetrahydro-6-methyl-8-(3-nitrophenyl)-1,1-dioxo-2H-thio-pyrano[3,2-b]pyridine-7-carboxylate]
- IC50 (calcium channels; Table I): 170 nM
- inhibition at 10 µM (trachealis muscle; [2]): 69%

Structure (SMILES): COC(=O)C1=C(C)NC2=C(C1c1cccc([N+](=O)[O-])c1)S(=O)(=O)CC2 (stereo not shown) [2 CH3 3-NO2C6 H4]
- IC50 (calcium channels; Table I): 700 nM
- inhibition at 10 µM (trachealis muscle; [2]): 76%

Structure (SMILES): CC1=C(C(=O)OCc2ccccc2)C(c2ccccc2[N+](=O)[O-])C2=C(CCCS2(=O)=O)N1 (stereo not shown) [3 CH2 C6 H5 2-NO2C6 H4]
- IC50 (calcium channels; Table I): 3400 nM
- inhibition at 10 µM (trachealis muscle; [2]): 69%

Structure (SMILES): CCOC(=O)C1=C(C)NC2=C(C1c1ccccc1[N+](=O)[O-])S(=O)(=O)CCC2 (stereo not shown) [3 CH2 CH3 2-NO2C6 H4]
- IC50 (calcium channels; Table I): 1500 nM
- inhibition at 10 µM (trachealis muscle; [2]): 75%

Structure (SMILES): COC(=O)C1=C(C)NC2(O)CCS(=O)(=O)C2C1c1ccccc1[N+](=O)[O-] (stereo not shown) [Methyl 2,3,3a,4,7,7a-hexahydro-3a-hydroxy-5-methyl-7-(2-nitrophenyl)-1,1-dioxo-thieno[3,2-b]pyridine-6-carboxylate]
- inhibition at 2 µM (trachealis muscle; [2]): 26%

Structure (SMILES): COC(=O)C1=C(C)NC2=C(C1c1ccccc1[N+](=O)[O-])S(=O)(=O)CC2 (stereo not shown) [2 CH3 2-NO2C6 H4, Methyl 2,3,4,7,-tetrahydro-5-methyl-7-(2-nitrophenyl)-1,1-dioxothieno[3,2-b]pyridine-6-carboxylate]
- IC50 (calcium channels; Table I): 1350 nM
- inhibition at 2 µM (trachealis muscle; [2]): 63%

Structure (SMILES): CC1=C(C(=O)OCCN(C)Cc2ccccc2)C(c2cccc([N+](=O)[O-])c2)C2=C(CCS2(=O)=O)N1 (stereo not shown) [2 CH2 CH2 NCH3 CH2 C6 H5 3-NO2C6 H4, N-Benzyl-N-methylaminoethyl 2,3,4,7-tetrahydro-5-methyl-7-(3-nitrophenyl)-1,1-dioxothieno[3,2-b]pyridine-6-carboxylate]
- IC50 (calcium channels; Table I): 1000 nM
- inhibition at 5 µM (trachealis muscle; Table I, concentration 5.0 μM, read-out: Inhibition of Ca2+ dependent smooth muscle contraction % Inhibition): 65%

Structure (SMILES): CCOC(=O)C1=C(C)NC2=C(C1c1c(F)c(F)c(F)c(F)c1F)S(=O)(=O)CC2 (stereo not shown) [2 CH2 CH3 C6 F5]
- IC50 (calcium channels; Table I): 560 nM
- inhibition at 2 µM (trachealis muscle; [2]): 48%

Structure (SMILES): CC1=C(C(=O)OCCN(C)Cc2ccccc2)C(c2cccc([N+](=O)[O-])c2)C2=C(CCCS2(=O)=O)N1 (stereo not shown) [3 CH2 CH2 NCH3 CH2 C6 H5 3-NO2C6 H4, N-Benzyl-N-methyl-2-aminoethyl 2,3,4,8-tetrahydro-6-methyl-8-(3-nitrophenyl)-1,1-dioxo-5H-thiopyrano[3,2-b]pyridine-7-carboxylate Hemioxalate]
- IC50 (calcium channels; Table I): 1850 nM
- inhibition at 2 µM (trachealis muscle; [2]): 46%

Structure (SMILES): COC(=O)C1=C(C)NC2=C(C1c1cccc(Cl)c1)S(=O)(=O)CC2 (stereo not shown) [2 CH3 3-ClC6 H4]
- IC50 (calcium channels; Table I): 930 nM

Continued, in another order:

- IC50 (calcium channels; Table II): 29 nM
Structure (SMILES): CC1=C(C(=O)OCCN(C)Cc2ccccc2)C(c2c(F)cccc2Cl)C2=C(CCCCS2(=O)=O)N1 (stereo not shown) [4 2-Cl,6-FC6 H3, N-Benzyl-N-methylaminoethyl 9-(2-chloro-6-fluorophenyl)-2,4,5,6,9-hexahydro-7-methyl-1,1-dioxothiacyclohepteno[3,2-b]pyridine-8-carboxylate]
- inhibition at 0.1 µM (trachealis muscle; [1]): 50%
- inhibition at 0.1 µM (Aorta Muscle): 66%

- IC50 (calcium channels; Table II): 72 nM
Structure (SMILES): CC1=C(C(=O)OCCN(C)Cc2ccccc2)C(c2ccccc2OC(F)F)C2=C(CCCCS2(=O)=O)N1 (stereo not shown) [4 2-OCHF2C6 H4, N-Benzyl-N-methylaminoethyl 9-(2-cifluoromethoxyphenyl)-2,4,5,6,9-hexahydro-7-methyl-1,1-dioxothiacyclohepteno[3,2-b]pyridine-8-carboxylate]
- inhibition at 0.1 µM (trachealis muscle; [1]): 54%

- IC50 (calcium channels; Table I): 400 nM
Structure (SMILES): COC(=O)C1=C(C)NC2=C(C1c1c(F)c(F)c(F)c(F)c1F)S(=O)(=O)CCC2 (stereo not shown) [3 CH3 C6 F5]
- inhibition at 0.5 µM (trachealis muscle; [2]): 46%

- IC50 (calcium channels; Table I): 160 nM
Structure (SMILES): COC(=O)C1=C(C)NC2=C(C1c1cccc([N+](=O)[O-])c1)S(=O)(=O)CCC2 (stereo not shown) [3 CH3 3-NO2C6 H4, Methyl 3,4,5,8,-tetrahydro-6-methyl-8-(3-nitrophenyl)-1,1-dioxo-2H-thiopyrano-[3,2-b]pyridine-7-carboxylate]
- inhibition at 10 µM (trachealis muscle; [2]): 57%

- IC50 (calcium channels; Table I): 35 nM
Structure (SMILES): CC1=C(C(=O)OCCN(C)Cc2ccccc2)C(c2c(F)c(F)c(F)c(F)c2F)C2=C(CCCCS2(=O)=O)N1 (stereo not shown) [4 CH2 CH2 NCH3 CH2 C6 H5 C6 F5, N-Benzyl-N-methylaminoethyl 9-(2,3,4,5,6-pentafluorophenyl)-2,3,4,5,6,9-hexahydro-7-methyl-1,1-dioxothiacyclohepteno[3,2-b]pyridine-8-carboxylate]
- inhibition at 0.2 µM (trachealis muscle; [2]): 74%

- IC50 (calcium channels; Table I): 44 nM
Structure (SMILES): CCOC(=O)C1=C(C)NC2=C(C1c1cccc([N+](=O)[O-])c1)S(=O)(=O)CCCC2 (stereo not shown) [4 CH 2 CH3 3-NO2C6 H4, Ethyl 2,3,4,5,6,9-hexahydro-7-methyl-9-(3-nitrophenyl)-1,1-dioxothiacyclohepteno[3,2-b]pyridine-8-carboxylate]
- inhibition at 2 µM (trachealis muscle; [2]): 96%

- IC50 (calcium channels; Table I): 27 nM and 39 nM
Structure (SMILES): COC(=O)C1=C(C)NC2=C(C1c1cccc([N+](=O)[O-])c1)S(=O)(=O)CCCC2 (stereo not shown) [4 CH3 3-NO2C6 H4]
- inhibition at 2 µM (trachealis muscle; [2]): 94%

- IC50 (calcium channels; Table I): 130 nM
Structure (SMILES): CC1=C(C(=O)OCCN(C)Cc2ccccc2)C(c2cccc([N+](=O)[O-])c2)C2=C(CCCCS2(=O)=O)N1 (stereo not shown) [4 CH2 CH2 NCH3 CH2 C6 H5 3-NO2C6 H4, N-Benzyl-N-methylaminoethyl 2,4,5,6,9-hexahydro-7-methyl-9-(3-nitrophenyl)-1,1-dioxothiacyclohepteno[3,2-b]pyridine-8-carboxylate]
- inhibition at 0.2 µM (trachealis muscle; [2]): 68%

- IC50 (calcium channels; Table I): 28 nM
Structure (SMILES): CCOC(=O)C1=C(C)NC2=C(C1c1c(F)c(F)c(F)c(F)c1F)S(=O)(=O)CCCC2 (stereo not shown) [4 CH2 CH3 C6 F5, Ethyl 9-(2,3,4,5,6-pentafluorophenyl)-2,3,4,5,6,9-hexahydro-7-methyl-1,1-dioxothiacyclohepteno[3,2-b]pyridine-8-carboxylate]
- inhibition at 0.5 µM (trachealis muscle; [2]): 95%

- IC50 (calcium channels; Table I): 5.5 nM
Structure (SMILES): CCOC(=O)C1=C(C)NC2=C(C1c1cccc([N+](=O)[O-])c1)S(=O)(=O)CCCCC2 (stereo not shown) [5 CH2 CH3 3-NO2C6 H4]
- inhibition at 0.1 µM (trachealis muscle; [2]): 71%

- IC50 (calcium channels; Table I): 890 nM
Structure (SMILES): COC(=O)C1=C(C)NC2=C(C1c1ccccc1[N+](=O)[O-])S(=O)(=O)CCC2 (stereo not shown) [3 CH3 2-NO2C6 H4]
- inhibition at 10 µM (trachealis muscle; [2]): 84%

- IC50 (calcium channels; Table I): 270 nM
Structure (SMILES): CCOC(=O)C1=C(C)NC2=CCCCCS(=O)(=O)C2C1c1cccc([N+](=O)[O-])c1 (stereo not shown) [Ethyl 3,4,5,7,10,10a-hexahydro-8-methyl-10-(3-nitrophenyl)-1,1-dioxo-2H-thiacycloocteno[3,2-b]pyridine-9-carboxylate]
- inhibition at 2 µM (trachealis muscle; [2]): 53%

Reference: US4777167A, “Pharmaceutically useful substituted thiacycloalkeno [3,2-b]pyridines, compositions and method of use” (Ortho Pharmaceutical Corporation, priority 1987, dated 1988)
